Here are results for 35 compounds from EP1100483B1, “GLUCOCORTICOID-SELECTIVE ANTI-INFLAMMATORY AGENTS” (Abbott Laboratories, priority 1998, dated 2000).

One may read the Ki as a measure of affinity in units of concentration, obtained from inhibition or displacement.

One experiment addresses T1, human glucocorticoid receptor-α [GRX] isoform (Homo sapiens, UniProt P04150).
T1 construct: purchased Ligand Pharmaceuticals (San Diego, CA); host or cells: insect SF21 cells (baculovirus)
T1 sequence (P04150 1-777): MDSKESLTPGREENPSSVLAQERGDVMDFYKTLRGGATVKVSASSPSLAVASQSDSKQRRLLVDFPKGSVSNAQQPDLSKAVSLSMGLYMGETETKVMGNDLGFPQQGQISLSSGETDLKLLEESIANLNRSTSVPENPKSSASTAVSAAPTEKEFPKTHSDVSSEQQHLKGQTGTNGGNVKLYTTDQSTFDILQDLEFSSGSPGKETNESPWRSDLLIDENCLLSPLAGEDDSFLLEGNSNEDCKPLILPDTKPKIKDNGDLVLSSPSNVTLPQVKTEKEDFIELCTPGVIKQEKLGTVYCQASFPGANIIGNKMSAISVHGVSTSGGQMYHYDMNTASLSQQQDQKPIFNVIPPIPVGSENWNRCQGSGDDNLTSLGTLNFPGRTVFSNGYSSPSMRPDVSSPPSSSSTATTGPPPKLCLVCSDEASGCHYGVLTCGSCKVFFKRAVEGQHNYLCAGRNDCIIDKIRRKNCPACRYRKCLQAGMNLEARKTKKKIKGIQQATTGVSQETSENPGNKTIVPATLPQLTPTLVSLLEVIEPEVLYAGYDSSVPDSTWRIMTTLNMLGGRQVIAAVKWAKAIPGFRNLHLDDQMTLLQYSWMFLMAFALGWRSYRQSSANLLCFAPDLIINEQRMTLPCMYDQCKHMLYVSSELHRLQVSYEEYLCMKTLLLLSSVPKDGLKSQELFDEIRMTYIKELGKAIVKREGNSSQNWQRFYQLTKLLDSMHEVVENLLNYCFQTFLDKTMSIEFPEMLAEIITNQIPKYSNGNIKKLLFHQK
In words: glucocorticoid receptor (GR) cytosol binding assay, [3H]-dexamethasone competition.
Conditions: not given
The source says: For glucocorticoid receptor (OR) cytosol binding assays, the procedure described in Anal. […] Briefly, cytosol preparations of human glucocorticoid receptor-α [GRX] isoform and human progesterone receptor-A [PRA] isoform were obtained from Ligand Pharmaceuticals (San Diego, CA). Both receptor cDNAs were cloned into baculovirus expression vectors and expressed in insect SF21 cells. […] Glass fiber type C multiscreen MAFC NOB plates were from Millipore ( Burlington, MA). Hydroxyapatide Bio-Gel HTP gel was obtained from Bio-Rad Laboratories (Hercules. CA). Tris(hydroxymethyl)aminomethane (Tris), ethylenediaminetetraacetic acid (EDTA), glycerol, dithiothreitol (DTT) and sodium moylybdate were obtained from Sigma Chemicals (St. Louis, MO). Microscint-20 scintillation fluid was obtained from Packard Instrument (Meriden, CT). […] GRX and PRA binding reactions were performed in Millipore Multiscreen plates. […] Specific binding was defined as the difference between binding of [^3H]Dex in the absence and in the presence of 1µM unlabeled Dex. After an overnight incubation, 50 µL of hydroxyapatite (25 % weight/volume) slurry were added to each well and plates were incubated for 10 min at 4 °C in a plate shaker. Plates were suctioned with a Millipore vacuum manifold and each well was rinsed with 300 µL of ice-cold binding buffer. A 250 µL aliquot of Packard Microscint-20 was added to each well and the wells were shaken at room temperature for 20 minutes. The amount of radioactivity was determined with a Packard TopCount plate reader.
Consider `CN(C)c1ccc(C(c2ccc(N(C)C)cc2)c2ccccc2C(F)(F)F)cc1` [Example 10, 4',4" bis(dimethylamino)-2-trifluoromethyltriphenylmethane], for which the Ki worked out at 2230 nM.
As to `CN(C)c1ccc(C(c2ccc(N(C)C)cc2)c2ccccc2Br)cc1` [Example 14, 4',4" bis(dimethylamino)-2-bromotriphenylmethane], the Ki amounted to 1510 nM.
As for `Cc1ccccc1C(c1ccc(N(C)C)cc1)c1ccc(N(C)C)cc1` [Example 15, 4',4" bis(dimethylamino)-2-methyltriphenylmethane], affinity was put at a Ki of 2960 nM.
Consider `CN(C)c1ccc(C(c2ccc(N(C)C)cc2)c2cc(Cl)cc(Cl)c2Cl)cc1` [Example 16, 4',4" bis(dimethylamino)-2,3,5-trichlorotriphenylmethane], for which the Ki amounted to 479 nM.
On the same count and under the same terms, under `CN(C)c1ccc(C(c2ccc(N(C)C)cc2)c2cc(C(F)(F)F)ccc2Cl)cc1` [Example 17, 4',4" bis(dimethylamino)-2-chloro-5-trifluoromethyltriphenylmethane] stands 4700 nM; under `CN(C)c1ccc(C(c2ccc(N(C)C)cc2)c2ccc(Cl)cc2Cl)cc1` [Example 18, 4',4" bis(dimethylamino)-2,4-dichlorotriphenylmethane], 5000 nM.
In turn, `CN(C)c1ccc(C(c2ccc(N(C)C)cc2)c2cc3c(cc2Cl)OCO3)cc1` [Example 19, 4',4" bis(dimethylamino)-2-chloro-4,5-methylenedioxytriphenylmethane] gave a Ki of 1600 nM.
Still for that read-out and setting: under `CN(C)c1ccc(C(c2ccc(N(C)C)cc2)c2c(Cl)cccc2Cl)cc1` [Example 20, 4',4" bis(dimethylamino)-2,6-dichlorotriphenylmethane] stands 1930 nM.
The same measure, in the same setting: in the case of `CN(C)c1ccc(C(c2ccc(N(C)C)cc2)c2cccc(Cl)c2Cl)cc1` [Example 21, 4',4" bis(dimethylamino)-2,3-dichlorotriphenylmethane] it was 1890 nM.
In the case of `CN(C)c1ccc(C(c2ccc(N(C)C)cc2)c2ccccc2F)cc1` [Example 25, 4',4" bis(dimethylamino)-2-fluorotriphenylmethane], the Ki was found to be 5270 nM.
Still for that read-out and setting: under `CN(C)c1ccc(C(c2ccc(N(C)C)cc2)c2ccccc2I)cc1` [Example 26, 4',4" bis(dimethylamino)-2-iodotriphenylmethane] stands 734 nM; under `CN(C)c1ccc(C(c2ccc(N(C)C)cc2)c2cc(I)ccc2Cl)cc1` [Example 33, 4'.4" bis(dimethylamino)-2-chloro-5-iodotriphenylmethane], 2300 nM.
`COc1ccc(C(c2ccc(N(C)C)cc2)c2ccc(N(C)C)cc2)cc1` [Example 38, 4',4"bis(dimethylamino)-4-methoxytriphenylmethane] displayed an inhibition constant (Ki) of 4710 nM.
In turn, `CN(C)c1ccc(C(c2ccc(N3CCOCC3)cc2)c2cc([N+](=O)[O-])ccc2Cl)cc1` (centres unmarked) [Example 40, 4'-dimethylamino-4"-(N-morpholinyl)-2-chloro-5-nitrotriphenylmethane] gave a Ki of 252 nM.
Still for that read-out and setting: under `CN(C)c1ccc(C(c2ccc(N3CCCC3)cc2)c2cc([N+](=O)[O-])ccc2Cl)cc1` (centres unmarked) [Example 41, 4'-dimethylamino-4"-(N-pyrrolidinyl)-2-chloro-5-nitrotriphenylmethane] stands 4490 nM.
For `CCCCN(CCCC)c1ccc(C(c2ccc(N(C)C)cc2)c2cc([N+](=O)[O-])ccc2Cl)cc1` (centres unmarked) [Example 43, 4'-dimethylamino-4"-(di-n-butylamino)-2-chloro-5-nitrotriphenylmethane], the Ki is 4490 nM.
With `Cc1cc(C(c2ccc(N(C)C)cc2)c2cc([N+](=O)[O-])ccc2Cl)ccc1N(C)C` (centres unmarked) [Example 44, 3'-methyl-4',4"-bis(dimethylamino)-2-chloro-5-nitrotriphenylmethane], affinity was put at a Ki of 287 nM.
The same measure, in the same setting: in the case of `CN(C)c1ccc(C(c2ccc(N3CCCCC3)cc2)c2cc([N+](=O)[O-])ccc2Cl)cc1` (centres unmarked) [Example 46, 4'-dimethylamino-4"-(N-piperidinyl)-2-chloro-5-nitrotriphenylmethane] it was 1160 nM.
The compound `CN(C)c1ccc(C(c2ccc(N(C)CCOC(=O)c3ccccc3)cc2)c2cc([N+](=O)[O-])ccc2Cl)cc1` (centres unmarked) [Example 50, 4'-dimethylamino-4"-(N-methyl-N-(2-benzoyloxyethyl)amino)-2-chloro-5-nitrotriphenylmethane] gave a Ki of 1630 nM.

The same experiment, now with this note: [3H]-Dex ~0.9 nM, GRX cytosol, 4 °C overnight; Cheng-Prusoff; read-out: Ki (nM) GR.
With `CN(C)c1ccc(C(c2ccc(N(C)C)cc2)c2ccc(Cl)c([N+](=O)[O-])c2)cc1` [Example 2, 4',4" bis(dimethylamino)-4-chloro-3-nitrotriphenylmethane], the Ki was found to be 4200 nM.
For the compound `CC(=O)Nc1ccc(Cl)c(C(c2ccc(N(C)C)cc2)c2ccc(N(C)C)cc2)c1` [Example 3, 4',4" bis(dimethylamino)-5-acetamido-2-chlorotriphenylmethane], the inhibitory constant (Ki) worked out at 5150 nM.
Consider `CN(C)c1ccc(C(c2ccc(N(C)C)cc2)c2ccc([N+](=O)[O-])cc2)cc1` [Example 4, 4',4" bis(dimethylamino)-4-nitrotriphenylmethane], for which the inhibition constant (Ki) is 4650 nM.
For the compound `CN(C)c1ccc(C(c2ccc(Cl)cc2)c2ccc(N(C)C)cc2)cc1` [Example 5, 4',4" bis(dimethylamino)-4-chlorotriphenylmethane], the Ki was found to be 4650 nM.
On to `CN(C)c1ccc(C(c2ccc(N(C)C)cc2)c2cccc(Cl)c2)cc1` [Example 6, 4',4" bis(dimethylamino)-3-chlorotriphenylmethane], for which the Ki was 2520 nM.
As for `CN(C)c1ccc(C(c2ccc(N(C)C)cc2)c2ccccc2Cl)cc1` [Example 7, 4',4" bis(dimethylamino)-2-chlorotriphenylmethane], the Ki amounted to 1990 nM.
In the case of `COc1ccccc1C(c1ccc(N(C)C)cc1)c1ccc(N(C)C)cc1` [Example 8, 4',4" bis(dimethylamino)-2-methoxytriphenylmethane], the Ki turned out to be 4290 nM.
For the compound `CN(C)c1ccc(C(c2ccc(N(C)C)cc2)c2cccc([N+](=O)[O-])c2)cc1` [Example 9, 4',4" bis(dimethylamino)-3-nitrotriphenylmethane], the Ki was found to be 1380 nM.
`CN(C)c1ccc(C(c2ccc(N(C)C)cc2)c2c(Cl)cccc2[N+](=O)[O-])cc1` [Example 12, 4',4" bis(dimethylamino)-2-chloro-6-nitrotriphenylmethane]: the Ki came out at 3850 nM.
With `O=[N+]([O-])c1ccc(Cl)c(C(c2ccc(N3CCCCC3)cc2)c2ccc(N3CCCCC3)cc2)c1` [Example 13, 4',4" bis(N-piperidinyl)-2-chloro-5-nitrotriphenylmethane], the Ki came out at 5000 nM.
As to `O=[N+]([O-])c1ccc(Cl)c(C(c2ccc(N3CCOCC3)cc2)c2ccc(N3CCOCC3)cc2)c1` [Example 22, 4',4" bis(N-morpholinyl)-2-chloro-5-nitrotriphenylmethane], the Ki amounted to 386 nM.
As for `Clc1cc(Cl)c(Cl)c(C(c2ccc(N3CCOCC3)cc2)c2ccc(N3CCOCC3)cc2)c1` [Example 28, 4',4" bis(N-morpholinyl)-2,3,5-trichlorotriphenylmethane], the Ki turned out to be 5270 nM.
With `O=[N+]([O-])c1ccc(Cl)c(C(c2ccc(N3CCCC3)cc2)c2ccc(N3CCCC3)cc2)c1` [Example 29, 4',4" bis(N-pyrrolidinyl)-2-chloro-5-nitrotriphenylmethane], the Ki came to 4560 nM.
Take `CN(C)c1ccc(C(c2ccc(N(C)C)cc2)c2cc(Br)ccc2Cl)cc1` [Example 34, 4',4" bis(dimethylamino)-5-bromo-2-chlorotriphenylmethane]: the Ki came to 725 nM.
The same measure, in the same setting: under `CN(C(=O)OC(C)(C)C)c1ccc(C(c2ccc(N(C)C(=O)OC(C)(C)C)cc2)c2cc([N+](=O)[O-])ccc2Cl)cc1` [Example 35, 4',4" bis(N-(t-butoxycarbonyl) N-methylamino)-2-chloro-5-nitrotriphenylmethane] stands 4560 nM; under `Clc1ccc(Cl)c(C(c2ccc(NCc3ccccc3)cc2)c2ccc(NCc3ccccc3)cc2)c1` [Example 37, 4',4" bis(N-benzylamino)-2,5-dichlorotriphenylmethane], 421 nM.
